Data on eight compounds can be found in patent publication US20200163342A1, “MIXTURES COMPRISING A BIOPESTICIDE AND A NITRIFICATION INHIBITOR” (BASF SE, priority 2017, published 2020).

Bridge positions count the residues as written; N and C are the ends. Square brackets hold non-standard residues; d marks the D form. Peptide text beside a SMILES is read from it. * marks the point of attachment. ξ: configuration not given here. Pentadecanoyl(3ξ-OH,15-Gua) = N=C(N)NCCCCCCCCCCCCC(O)CC(=O)*; d(aThr) = C[C@@H](O)[C@@H](N)C(=O)O; Thr(3ξ) = CC(O)[C@H](N)C(=O)O; ξY = NC(Cc1ccc(O)cc1)C(=O)O

The subject of one test is N2O emissions from soils. Description: Greenhouse detection of nitrous oxide losses (N2O emission), soybean pots. In kind it is in vivo, Glycine max 'Sultana'. The conditions noted are these: DMPSA 1% of NH4-N where present. The protocol:
(§1) Plants were generally grown under standard green house conditions (20° C. and 60% humidity) using standard greenhouse soil (mixture of peat, loam and sand). Therefore, 0.4 g of ryegrass seeds (Lolium perennes ‘Chagall’), 1 soybean seed (Glycine max ‘Sultana’) or 1 grape vine live stack (Vitis vinifer ssp. ‘Sativa’) were grown per pot (8.4 cm for ryegrass, soybean; 13 cm for grape vine) in a completely randomized set-up. Following a growth period of ten days (ryegrass), 14 days (soybean) or approx. 21 days, until the main shoot reached a length of 20 cm (grape vine), plants were designated for experimental usage.
On application day (DATO), each pot (with/without plants) was set onto a plant saucer designed with an inner compartment for the pot and an outer ring that is filled with water. At time 0, water holding capacity of the soil was set to 60-70% prior to application with/without fertilizer and active ingredient. Subsequently, a gas sampling chamber was placed over the plant saucer such that the rim fit into the ring filled with water to create a gas-tight chamber and 25 cc air from the chamber were drawn into a syringe and immediately emptied in to a Vacutainer (Labco, 12 ml volume). This equals the Time 0 measurement for each pot. The same procedure was performed with all pots in the experiment. After two hour incubation time, again 25 cc air samples were taken from the gas chambers and emptied into Vacutainers as described above. Plants were then returned to their positions in the climate chamber. The procedure was repeated at precisely the same time of day for up to 19 days.
Samples were analyzed in a Shimadzu 2014 GC equipped with an ECD system.
(§2) In Table N1, the weight ratio between DMPSA and Histick Super is 3.65:1, the weight ratio between DMPSA and Hicoat is 10.43:1.

Test [1] relates to soybean (Glycine max 'Sultana'). Description: Greenhouse detection of plant biomass (fresh weight), soybean. In kind it is in vivo. The conditions noted are these: 17 days after start, with AS liquid, DMPSA 1% of NH4-N where present. As for the experimental part: as §1
Detection of ryegrass and soybean biomass (fresh weight) was determined gravitometricallly. Therefore, plants were cut using a hand held lawn cutter (ryegrass) or garden shears (soybean) 1 cm above the soil. Given ryegrass data represent the mean value of respective replicates summed up for 3 cuttings. For experiments using ryegrass, evaluations were conducted 5, 12 and 17 days after start of the experiment. For experiments using soybean, biomass evaluation was conducted 17 days after experimental start.
as §2

Test [2] relates to grape vine (Vitis vinifer ssp. 'Sativa'). Description: Greenhouse shoot elongation, grape vine. In kind it is in vivo. The conditions noted are these: grape vine main shoot elongation, 17 days after start; DMPSA 1% of NH4-N, VitoVin 12481 g/ha. As for the experimental part: as §1
For experiments using grape vine, elongation of the main shoot was measured metrically 17 days after experimental start.
In Table N2, the weight ratio between DMPSA and VitoVin is 1:5.6.

Test [3] concerns Fusarium oxysporum, Aspergillus niger, Aspergillus oryzae, and Penicillum thomii. The conditions noted are these: J. Antibiotics 49(2), 129-135, 1996; 50(3), 220-228, 1997; cited from earlier work.
For another test, the system named is cultured parsley cells. The note with it: WO2006/016558; EP1 788 074 A1; cited from earlier work.
A further test deals with Fusarium oxysporum. The note with it: WO2006/016558; EP1 788 074 A1; cited from earlier work.
Test [4] deals with clinically relevant fungi and gram-positive bacteria such a Staphylococcus aureus. The note with it: variety of clinically relevant fungi and gram-positive bacteria; ChemMedChem 7, 871-882, 2012; cited from earlier work.
Test [5] concerns Fusarium moniliforme, F. oxysporum, F. roseum, Giberella fujkuroi, Helminthosporium sesamum and Penicillium expansum. The conditions noted are these: J. Antibiotics 40(11), 1506-1514, 1987; cited from earlier work.

The compound “2-(3,4-dimethyl-1H-pyrazol-1-yl)succinic acid (DMPSA1) and/or 2-(4,5-dimethyl-1H-pyrazol-1-yl)succinic acid (DMPSA2)” registered an N2O emission ppb in the test on N2O emissions from soils (with AS liquid (ammonium sulfate, 219000 g/ha NH4-N)) of 38 ppb. Moreover, the “N2O emission ppb net emission” value in the test on N2O emissions from soils (with AS liquid) amounted to 38 ppb. Moreover, the “% inhibition (N2O emission)” value in the test on N2O emissions from soils (with AS liquid, relative to soybean untreated + AS liquid) was determined as 19%. In addition, in test [1], the “Biomass increase [% of fertilized control]” value is reported as 83 % of fertilized control and the “net Biomass increase” value was -2.47 g. In test [2], the “relative Growth increase [% of control]” value is reported as 104 % of control.

Turning to `CC(C)[C@@H]1NC(=O)[C@@H](C(C)C)NC(=O)[C@@H](NC(=O)CC(O)CCCCCCCCCCCCN=C(N)N)C(C)OC(=O)[C@@H](C)NC(=O)[C@@H](CCC(N)=O)NC(=O)[C@@H]([C@H](C)O)NC1=O` (stereo in doubt) [fusaricidin B], in test [3], the “inhibition of plant pathogenic fungi” value is given as “inhibit plant pathogenic fungi”. Besides, the “induction of resistance reactions in cultured parsley cells” value in the test on cultured parsley cells was “induce resistance reactions”. In addition, the “inhibition of growth of Fusarium oxysporum” value with Fusarium oxysporum was “inhibit growth”.

On to `CC(C)[C@@H]1NC(=O)[C@@H](C(C)C)NC(=O)[C@@H](NC(=O)CC(O)CCCCCCCCCCCCN=C(N)N)[C@@H](C)OC(=O)[C@@H](C)NC(=O)[C@@H](CC(N)=O)NC(=O)[C@@H]([C@@H](C)O)NC1=O` (stereo partly drawn) [fusaricidin A] ({Pentadecanoyl(3ξ-OH,15-Gua)}-T[dV]V[d(aThr)][dN][dA]; ester 1-C), for which, in test [4], the MIC value range was 0.78 to 3.12 µg/mL. In test [3], the “inhibition of plant pathogenic fungi” value was “inhibit plant pathogenic fungi”. In addition, the “induction of resistance reactions in cultured parsley cells” value with cultured parsley cells was “induce resistance reactions”. In the test with Fusarium oxysporum, the “inhibition of growth of Fusarium oxysporum” value is given as “inhibit growth”.

On to `CC1OC(=O)[C@@H](C)NC(=O)[C@@H](CC(N)=O)NC(=O)[C@@H]([C@H](C)O)NC(=O)C(Cc2ccc(O)cc2)NC(=O)[C@@H](C(C)C)NC(=O)[C@H]1NC(=O)CC(O)CCCCCCCCCCCCN=C(N)N` (stereo partly drawn) [fusaricidin C] ({Pentadecanoyl(3ξ-OH,15-Gua)}-[Thr(3ξ)][dV][ξY][dT][dN][dA]; ester 1-C), for which, in test [3], the “inhibition of plant pathogenic fungi” value is on record as “inhibit plant pathogenic fungi”.

As to `CC1OC(=O)[C@@H](C)NC(=O)[C@@H](CCC(N)=O)NC(=O)[C@@H]([C@H](C)O)NC(=O)C(Cc2ccc(O)cc2)NC(=O)[C@@H](C(C)C)NC(=O)[C@H]1NC(=O)CC(O)CCCCCCCCCCCCN=C(N)N` (stereo partly drawn) [fusaricidin D] ({Pentadecanoyl(3ξ-OH,15-Gua)}-[Thr(3ξ)][dV][ξY][dT][dQ][dA]; ester 1-C), the “inhibition of plant pathogenic fungi” value in test [3] is reported as “inhibit plant pathogenic fungi”.

With fusaricidin LI-F05, in test [5], the “antifungal activity against various plant pathogenic fungi” value (shortened to “antifungal activity”) is “certain antifungal activity”.

Regarding fusaricidin LI-F07, the “antifungal activity” value in test [5] is “certain antifungal activity”.

As for fusaricidin LI-F08, in test [5], the “antifungal activity” value is “certain antifungal activity”.
